Data: patent publication US11026427B2, “Microbiocidal oxadiazole derivatives” (SYNGENTA PARTICIPATIONS AG, priority 2016, dated 2021)

How the values were obtained:
[1] = system: Puccinia recondita f. Sp. tritici; assay: Puccinia recondita f. sp. tritici / wheat / leaf disc preventative (brown rust); type: in vivo; settings: foliar, 200 ppm in the applied formulation, compared to untreated control, read-out: disease control
Protocol: Leaf disks or leaf segments of various plant species are cut from plants grown in a greenhouse. The cut leaf disks or segments are placed in multiwell plates (24-well format) onto water agar. The leaf disks are sprayed with a test solution before (preventative) or after (curative) inoculation. Compounds to be tested are prepared as DMSO solutions (max. 10 mg/ml) which are diluted to the appropriate concentration with 0.025% Tween20 just before spraying. The inoculated leaf disks or segments are incubated under defined conditions (temperature, relative humidity, light, etc.) according to the respective test system. A single evaluation of disease level is carried out 3 to 14 days after inoculation, depending on the pathosystem. Percent disease control relative to the untreated check leaf disks or segments is then calculated. Wheat leaf segments cv. Kanzler were placed on agar in multiwell plates (24-well format) and sprayed with the formulated test compound diluted in water. The leaf disks were inoculated with a spore suspension of the fungus 1 day after application. The inoculated leaf segments were incubated at 19° C. and 75% relative humidity (rh) under a light regime of 12 hours light/12 hours darkness in a climate cabinet and the activity of a compound was assessed as percent disease control compared to untreated when an appropriate level of disease damage appears in untreated check leaf segments (7 to 9 days after application). The following compounds at 200 ppm in the applied formulation give at least 80% disease control in this test when compared to untreated control leaf disks under the same conditions, which show extensive disease development.

[2] = system: Glomerella lacenarium (Colletotrichum lacenarium); assay: Glomerella lacenarium (Colletotrichum lacenarium) liquid culture / cucumber / preventative (anthracnose); type: cell-based; settings: 20 ppm in the applied formulation, growth inhibition measured photometrically, compared to untreated control, read-out: disease control
Protocol: Mycelia fragments or conidia suspensions of a fungus prepared either freshly from liquid cultures of the fungus or from cryogenic storage, are directly mixed into nutrient broth. DMSO solutions of the test compound (max. 10 mg/ml) are diluted with 0.025% Tween20 by a factor of 50 and 10 μl of this solution is pipetted into a microtiter plate (96-well format). The nutrient broth containing the fungal spores/mycelia fragments is then added to give an end concentration of the tested compound. The test plates are incubated in the dark at 24° C. and 96% relative humidity. The inhibition of fungal growth is determined photometrically after 2 to 7 days, depending on the pathosystem, and percent antifungal activity relative to the untreated check is calculated.
Conidia of the fungus from cryogenic storage are directly mixed into nutrient broth (PDB—potato dextrose broth). After placing a (DMSO) solution of test compound into a microtiter plate (96-well format), the nutrient broth containing the fungal spores is added. The test plates are incubated at 24° C. and the inhibition of growth is measured photometrically 3 to 4 days after application.
The following compounds at 20 ppm in the applied formulation give at least 80% disease control in this test when compared to untreated control under the same conditions, which show extensive disease development.

[3] = system: Puccinia recondita f. Sp. tritici; assay: Puccinia recondita f. sp. tritici / wheat / leaf disc curative (brown rust); type: in vivo; settings: foliar, 200 ppm in the applied formulation, compared to untreated control, read-out: disease control
Protocol: (§1) Leaf disks or leaf segments of various plant species are cut from plants grown in a greenhouse. The cut leaf disks or segments are placed in multiwell plates (24-well format) onto water agar. The leaf disks are sprayed with a test solution before (preventative) or after (curative) inoculation. Compounds to be tested are prepared as DMSO solutions (max. 10 mg/ml) which are diluted to the appropriate concentration with 0.025% Tween20 just before spraying. The inoculated leaf disks or segments are incubated under defined conditions (temperature, relative humidity, light, etc.) according to the respective test system. A single evaluation of disease level is carried out 3 to 14 days after inoculation, depending on the pathosystem. Percent disease control relative to the untreated check leaf disks or segments is then calculated.
Wheat leaf segments cv. Kanzler are placed on agar in multiwell plates (24-well format). The leaf segments are then inoculated with a spore suspension of the fungus. Plates were stored in darkness at 19° C. and 75% relative humidity. The formulated test compound diluted in water was applied 1 day after inoculation. The leaf segments were incubated at 19° C. and 75% relative humidity under a light regime of 12 hours light/12 hours darkness in a climate cabinet and the activity of a compound was assessed as percent disease control compared to untreated when an appropriate level of disease damage appears in untreated check leaf segments (6 to 8 days after application).
(§2) The following compounds at 200 ppm in the applied formulation give at least 80% disease control in this test when compared to untreated control leaf disks under the same conditions, which show extensive disease development.

Phakopsora pachyrhizi = Phakopsora pachyrhizi / soybean / leaf disc preventative (Asian soybean rust); type: in vivo; settings: foliar, 200 ppm in the applied formulation, compared to untreated control, read-out: disease control
Protocol: as §1
Soybean leaf disks are placed on water agar in multiwell plates (24-well format) and sprayed with the formulated test compound diluted in water. One day after application leaf discs are inoculated by spraying a spore suspension on the lower leaf surface. After an incubation period in a climate cabinet of 24-36 hours in darkness at 20° C. and 75% rh leaf disc are kept at 20° C. with 12 h light/day and 75% rh. The activity of a compound is assessed as percent disease control compared to untreated when an appropriate level of disease damage appears in untreated check leaf disks (12 to 14 days after application).
as §2

Row | SMILES | melting point | pest or weed control at 200 ppm [1] | inhibition of growth at 20 ppm [2] | pest or weed control at 200 ppm [3] | pest or weed control at 200 ppm (Phakopsora pachyrhizi)
1 | O=C(c1ccc(-c2noc(C(F)(F)F)n2)cc1)c1ccno1 [Compound 1.35, isoxazol-5-yl-[4-[5-(trifluoromethyl)-1,2,4-oxadiazol-3-yl]phenyl]methanone] | 112 to 118 °C | ≥ 80% | ≥ 80% | ≥ 80% | –
2 | Cc1ccc(C(=O)c2ccc(-c3noc(C(F)(F)F)n3)cc2)nc1 [Compound 1.37, (5-methyl-2-pyridyl)-[4-[5-(trifluoromethyl)-1,2,4-oxadiazol-3-yl]phenyl]methanone] | – | ≥ 80% | ≥ 80% | ≥ 80% | –
3 | Cc1cc(C(=O)c2ccc(-c3noc(C(F)(F)F)n3)cc2)on1 [Compound 1.13, (3-methylisoxazol-5-yl)-[4-[5-(trifluoromethyl)-1,2,4-oxadiazol-3-yl]phenyl]methanone] | – | ≥ 80% | ≥ 80% | ≥ 80% | ≥ 80%
4 | Cc1cc(C(O)c2ccc(-c3noc(C(F)(F)F)n3)cc2)on1 (stereo not shown) [Compound 2.14, (3-methylisoxazol-5-yl)-[4-[5-(trifluoromethyl)-1,2,4-oxadiazol-3-yl]phenyl]methanol] | 84 to 90 °C | ≥ 80% | ≥ 80% | ≥ 80% | ≥ 80%
5 | OC(c1ccc(-c2noc(C(F)(F)F)n2)cc1)c1ccccn1 (stereo not shown) [Compound 2.12, 2-pyridyl-[4-[5-(trifluoromethyl)-1,2,4-oxadiazol-3-yl]phenyl]methanol] | – | ≥ 80% | ≥ 80% | ≥ 80% | ≥ 80%
6 | COc1ccc(C(=O)c2ccc(-c3noc(C(F)(F)F)n3)cc2)nc1 [Compound 1.20, (5-methoxy-2-pyridyl)-[4-[5-(trifluoromethyl)-1,2,4-oxadiazol-3-yl]phenyl]methanone] | 65 to 73 °C | ≥ 80% | ≥ 80% | ≥ 80% | ≥ 80%
7 | N#Cc1ccc(C(=O)c2ccc(-c3noc(C(F)(F)F)n3)nc2)cc1 [Compound 1.30, 4-[6-[5-(trifluoromethyl)-1,2,4-oxadiazol-3-yl]pyridine-3-carbonyl]benzonitrile] | 142 to 146 °C | ≥ 80% | ≥ 80% | ≥ 80% | –
8 | OC(c1ccc(-c2noc(C(F)(F)F)n2)cc1)c1cscn1 (stereo not shown) [Compound 2.18, thiazol-4-yl-[4-[5-(trifluoromethyl)-1,2,4-oxadiazol-3-yl]phenyl]methanol] | 56 to 60 °C | ≥ 80% | ≥ 80% | ≥ 80% | –
9 | CCc1cc(C(=O)c2ccc(-c3noc(C(F)(F)F)n3)cc2)on1 [Compound 1.14, (3-ethylisoxazol-5-yl)-[4-[5-(trifluoromethyl)-1,2,4-oxadiazol-3-yl]phenyl]methanone] | – | ≥ 80% | ≥ 80% | ≥ 80% | ≥ 80%
10 | C=C(C)CC(O)(c1ccc(-c2noc(C(F)(F)F)n2)cc1)c1cc(C)no1 (stereo not shown) [Compound 2.24, 3-methyl-1-(3-methylisoxazol-5-yl)-1-[4-[5-(trifluoromethyl)-1,2,4-oxadiazol-3-yl]phenyl]but-3-en-1-ol] | – | ≥ 80% | – | ≥ 80% | –
11 | O=C(c1ccc(-c2noc(C(F)(F)F)n2)cc1)c1ccccn1 [Compound 1.16, 2-pyridyl-[4-[5-(trifluoromethyl)-1,2,4-oxadiazol-3-yl]phenyl]methanone] | 66 to 70 °C | ≥ 80% | ≥ 80% | ≥ 80% | ≥ 80%
12 | CCn1cc(C(=O)c2ccc(-c3noc(C(F)(F)F)n3)cc2)cn1 [Compound 1.17, (1-ethylpyrazol-4-yl)-[4-[5-(trifluoromethyl)-1,2,4-oxadiazol-3-yl]phenyl]methanone] | 80 to 86 °C | ≥ 80% | ≥ 80% | ≥ 80% | ≥ 80%
13 | Cc1ncc(C(O)c2ccc(-c3noc(C(F)(F)F)n3)cc2)s1 (stereo not shown) [Compound 2.22, (2-methylthiazol-5-yl)-[4-[5-(trifluoromethyl)-1,2,4-oxadiazol-3-yl]phenyl]methanol] | 104 to 108 °C | ≥ 80% | – | ≥ 80% | –
14 | Cc1nc(C(=O)c2ccc(-c3noc(C(F)(F)F)n3)cc2)cs1 [Compound 1.33, (2-methylthiazol-4-yl)-[4-[5-(trifluoromethyl)-1,2,4-oxadiazol-3-yl]phenyl]methanone] | – | ≥ 80% | ≥ 80% | ≥ 80% | –
15 | Cc1cccc(C(O)c2ccc(-c3noc(C(F)(F)F)n3)cc2)n1 (stereo not shown) [Compound 2.13, (6-methyl-2-pyridyl)-[4-[5-(trifluoromethyl)-1,2,4-oxadiazol-3-yl]phenyl]methanol] | – | ≥ 80% | ≥ 80% | ≥ 80% | ≥ 80%
16 | Cc1cc(C(C)(O)c2ccc(-c3noc(C(F)(F)F)n3)cc2)on1 (stereo not shown) [Compound 2.26, 1-(3-methylisoxazol-5-yl)-1-[4-[5-(trifluoromethyl)-1,2,4-oxadiazol-3-yl]phenyl]ethanol] | – | ≥ 80% | – | ≥ 80% | –
17 | Cc1nc(C(O)c2ccc(-c3noc(C(F)(F)F)n3)cc2)cs1 (stereo not shown) [Compound 2.20, (2-methylthiazol-4-yl)-[4-[5-(trifluoromethyl)-1,2,4-oxadiazol-3-yl]phenyl]methanol] | 95 to 99 °C | ≥ 80% | – | ≥ 80% | –
18 | CCC(O)(c1ccc(-c2noc(C(F)(F)F)n2)cc1)c1cc(C)no1 (stereo not shown) [Compound 2.27, 1-(3-methylisoxazol-5-yl)-1-[4-[5-(trifluoromethyl)-1,2,4-oxadiazol-3-yl]phenyl]propan-1-ol] | – | ≥ 80% | – | ≥ 80% | –
19 | Cc1cccc(C(=O)c2ccc(-c3noc(C(F)(F)F)n3)cc2)n1 [Compound 1.18, (6-methyl-2-pyridyl)-[4-[5-(trifluoromethyl)-1,2,4-oxadiazol-3-yl]phenyl]methanone] | – | ≥ 80% | ≥ 80% | ≥ 80% | ≥ 80%
